Test results from patent US11708352B2, “Anti-cancer compounds” (THE REGENTS OF THE UNIVERSITY OF CALIFORNIA, priority 2015, dated 2023).

Tests used:
A549 = assay: Cell viability assay in solid tumor cell lines (Cell-Titer Glo), A549; assay type: cell-based; details: Homo sapiens, 72 hours
Protocol: (§1) Cell Viability Assay in Solid Tumors Cell Lines (Data in FIG. 2)
(§2) Human cancer cell lines (lung, ovarian, breast pancreatic and mesothelioma) were purchased from the ATCC. The cell lines were cultured in RPMI 1640 (Life Technologies, Carlsbad, Calif.) supplemented with 10% fetal bovine serum (FBS) and antibiotics. […] At the end of treatment, cell proliferation was determined by an intracellular adenosine triphosphate monitoring system (Cell-Titer Glo-Promega).
(§3) Inhibitory activity was evaluated comparing treated versus control data using the GraphPad Prism 6.0 software.

ABL1 = ABL1 (Homo sapiens, UniProt P00519); assay: ABL kinase assay (Z'-LYTE biochemical kinase profiling); details: ATP 10 μM final
Protocol: ABL Kinase Assays (Data in FIG. 1)
The direct inhibitory effect of the test compounds on the ABL kinases activity was assessed using the Z′-LYTE biochemical kinase profiling assays (SelectScreen Kinase Profiling assays, Life Technologies). The Z′-LYTE biochemical assay employs a fluorescence-based, coupled-enzyme format and is based on the differential sensitivity of phosphorylated and non-phosphorylated peptides to proteolytic cleavage. The peptide substrate is labeled with two fluorophores (one at each end) that make up a FRET pair. In the primary reaction, the kinase transfers the gamma-phosphate of ATP to a single tyrosine, serine or threonine residue in a synthetic FRET-peptide. In the secondary reaction, a site-specific protease recognizes and cleaves non-phosphorylated FRET-peptides. Phosphorylation of FRET-peptides suppresses cleavage by the Development Reagent. Cleavage disrupts FRET between the donor and acceptor fluorophores on the FRET-peptide, whereas uncleaved, phosphorylated FRET-peptides maintain FRET. The extent of phosphorylation of the FRET-peptide can be calculated from the Emission Ratio between cleaved and uncleaved FRET-peptides. The Emission Ratio will remain low if the FRET-peptide is phosphorylated (i.e., no kinase inhibition) and will be high if the FRET-peptide is non-phosphorylated (i.e., kinase inhibition).
Using the above described assay, The Test Compounds were screened in 1% DMSO (final) in the well. 10 point titrations, 3-fold serial dilutions were conducted. Briefly, in a black 384-well plate serial dilutions of test compound or 100 nL 100× were mixed with kinase buffer peptide/Kinase Mixture and ATP Solution (10 μM final). After one hour Kinase Reaction incubation at room temperature, the development Reagent Solution was added. Subsequently, the fluorescence signals were measured using a fluorescence plate reader. Data were analyzed and the IC50 were calculated with XLfit graphing software using the sigmoidal dose-response model.

OVCAR8 = assay: Cell viability assay in solid tumor cell lines (Cell-Titer Glo), OVCAR8; assay type: cell-based; details: Homo sapiens, OVCAR-8, 72 hours
Protocol: as §1, §2, §3

PARP1 = target: T1, PARP1 (Homo sapiens, UniProt P09874); assay: PARP enzymatic activity inhibition (Trevigen HT Universal PARP Assay Kit); assay type: biochemical
T1 construct: purchased Trevigen 4677-096-K
Protocol: PARP Enzymatic Activity Inhibition: Determination of IC50 Values for Selected Compounds (Data in FIG. 1)
(§4) The half maximal inhibitory concentration (IC50) with respect to PARP inhibition was determined for each test compound by using Trevigen's HT Universal PARP Assay Kit, according to the manufacturer's protocol (Cat #4677-096-K, Gaithersburg, Md.). This assay measures the incorporation of biotinylated poly(ADP-ribose) onto histone proteins in a 96-well strip well format. This assay is ideal for the determination of IC50 values of known or suspected PARP inhibitors. Briefly, stock solutions of each test compound were prepared in DMSO. Histone strip wells were incubated for 30 minutes at room temperature with 50 μl/well of 1×PARP Buffer to rehydrate the histones. Serial dilutions of either test compound were added to appropriate wells. Diluted PARP enzyme (0.5 Unit/well) was then added to the wells containing compounds, and incubated for 10 minutes at room temperature. Subsequently, 25 μl of 1×PARP Cocktail, containing activated DNA, was distributed into each well. Three types of control wells were also analyzed; i. A negative control without PARP was prepared to determine background absorbance. ii. An activity control for PARP Inhibitor Study: 0.5 Unit/well PARP-HSA without inhibitors. These wells provided the 100% activity reference point. iii. And a PARP Standard Curve: Serial dilution of the PARP-HAS standard were prepared in cold microtubes with 1×PARP Buffer such that the total activity is 1 Unit/25 μl, 0.5 Units/25 μl, 0.25 Units/25 μl, 0.1 Units/25 μl, 0.05 Units/25 μl, 0.025 Units/25 and 0.01 Units/25 μl. 25 μl of each standard was added to triplicate wells. Following a 60 minutes incubation at room temperature, the strip wells were washed twice with 1×PBS+0.1% Triton X-100, and twice with 1×PBS. For activity detection, 50 μl per well of diluted Strep-HRP was added, and then incubated at room temperature for 60 minutes. Subsequently, 50 μl per well of pre-warmed TACS-Sapphire™ colorimetric substrate was added followed by a 15 minutes incubation, in the dark, at room temperature. The reactions were then stopped by adding 50 μl per well of 0.2M HCl or 5% Phosphoric Acid and read the absorbance at 450 nm.
The IC50 values were determined by performing non-linear regression analysis fitting velocities and the logarithm of inhibitor concentrations to a sigmoidal dose response with a variable slope model using the GraphPad Prism 6.0 software.

bovine brain tubulin = assay: Tubulin polymerization assay (Cytoskeleton kit BK011P); assay type: biochemical; details: % Inhibition versus control; compound concentration of 4 μM
Text: Tubulin Polymerization Assay (Data in FIG. 1)
The high-throughput screening-tubulin polymerization assay kit (Cytoskeleton, Cat. #BK011P) is an economical one step procedure for determining the effects of drugs or proteins on tubulin polymerization. Polymerization is followed by fluorescence enhancement due to the incorporation of a fluorescent reporter into microtubules as polymerization occurs. The standard assay tubulin generates a polymerization curve representing the three phases of microtubule formation, namely nucleation, growth, and steady state equilibrium. Compounds that interact with tubulin will often alter one or more of the characteristic phases of polymerization. For example, the anti-mitotic drug paclitaxel eliminates the nucleation phase and enhances the Vmax of the growth phase. Similarly, the microtubule destabilizing drug, vinblastine (also antimitotic) causes a decrease in Vmax and a reduction in final polymer mass. Thus, one application of this assay is the identification of novel anti-mitotics.
The direct effects of the test compounds on tubulin polymerization were investigated using the abovementioned Tubulin polymerization assay kit (Cytoskeleton, Cat. #BK011P), as indicated by the manufacturer protocol. Briefly, bovine brain tubulin (400 μg/sample) in the presence of either 0.5% DMSO treated (control), 4 μM test compounds, 3 μM paclitaxel (Cytoskeleton), or 3 μM vinblastine (Cytoskeleton) was incubated in PEM buffer [80 mm PIPES, 1 mm EGTA, 1 mm MgCl2 (pH 6.8)] containing 1.0 mm GTP (G-PEM) and 15% glycerol, at 37 C. All samples (wells) contained 15% glycerol. The degree of polymerization over time was measured in a spectrophotometer (Biotek synergy HT plate reader) at 350 nm. All time points were plotted and analyzed using GraphPad Prism 6.0 software.
DMSO control was set as 0% inhibition. Positive values depict the percentage of decrease in Vmax and final polymer mass, as compared to control. Negative values are inversely correlated to degree of nucleation phase elimination and the percentage of increase of the Vmax, as compared to control.

PARP2 = PARP2 (Homo sapiens, UniProt Q9UGN5); assay: PARP enzymatic activity inhibition, PARP2 column; assay type: biochemical
Protocol: as §4, with “And a PARP Standard Curve: Serial dilution of the PARP-HAS standard were prepared in cold microtubes with 1×PARP Buffer such that the total activity is 1 Unit/25 μl, 0.5 Units/25 μl, 0.25 Units/25 μl, 0.1 Units/25 μl, 0.05 Units/25 μl, 0.025 Units/25 and 0.01 Units/25 μl. 25 μl of each standard was added to triplicate wells. Following a 60 minutes incubation at room temperature, the strip wells were washed twice with 1×PBS+0.1% Triton X-100, and twice with 1×PBS. For activity detection, 50 μl per well of diluted Strep-HRP was added, and then incubated at room temperature for 60 minutes. Subsequently, 50 μl per well of pre-warmed TACS-Sapphire™ colorimetric substrate was added followed by a 15 minutes incubation, in the dark, at room temperature.” left out

T1 sequence (P09874 whole entry): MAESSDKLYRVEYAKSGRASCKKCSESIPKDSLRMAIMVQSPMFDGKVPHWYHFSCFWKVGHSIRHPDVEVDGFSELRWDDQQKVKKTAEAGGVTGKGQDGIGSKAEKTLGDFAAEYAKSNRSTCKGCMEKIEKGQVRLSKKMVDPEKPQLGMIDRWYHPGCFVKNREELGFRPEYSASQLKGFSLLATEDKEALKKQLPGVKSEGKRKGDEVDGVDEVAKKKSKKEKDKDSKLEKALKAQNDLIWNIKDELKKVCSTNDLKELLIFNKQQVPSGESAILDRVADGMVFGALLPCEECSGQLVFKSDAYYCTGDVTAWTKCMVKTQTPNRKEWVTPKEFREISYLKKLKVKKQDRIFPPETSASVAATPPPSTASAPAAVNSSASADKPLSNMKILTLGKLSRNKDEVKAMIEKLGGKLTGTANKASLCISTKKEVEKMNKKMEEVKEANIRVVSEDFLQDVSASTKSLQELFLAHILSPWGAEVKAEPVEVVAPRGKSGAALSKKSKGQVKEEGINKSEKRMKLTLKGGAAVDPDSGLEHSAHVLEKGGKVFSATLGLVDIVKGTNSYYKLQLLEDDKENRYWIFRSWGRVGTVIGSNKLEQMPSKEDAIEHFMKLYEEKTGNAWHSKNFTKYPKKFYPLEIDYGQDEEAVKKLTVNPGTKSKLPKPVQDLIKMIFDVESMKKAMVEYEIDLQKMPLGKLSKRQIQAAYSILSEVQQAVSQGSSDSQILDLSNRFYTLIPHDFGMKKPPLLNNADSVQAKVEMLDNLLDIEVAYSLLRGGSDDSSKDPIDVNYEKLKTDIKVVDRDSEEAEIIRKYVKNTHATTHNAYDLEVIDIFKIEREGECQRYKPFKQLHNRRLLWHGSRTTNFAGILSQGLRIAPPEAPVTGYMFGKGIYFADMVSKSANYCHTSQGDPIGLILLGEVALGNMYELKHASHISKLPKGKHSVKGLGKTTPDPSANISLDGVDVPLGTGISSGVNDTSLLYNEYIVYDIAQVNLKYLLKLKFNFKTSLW
Chain of ABL1 (P00519 whole entry): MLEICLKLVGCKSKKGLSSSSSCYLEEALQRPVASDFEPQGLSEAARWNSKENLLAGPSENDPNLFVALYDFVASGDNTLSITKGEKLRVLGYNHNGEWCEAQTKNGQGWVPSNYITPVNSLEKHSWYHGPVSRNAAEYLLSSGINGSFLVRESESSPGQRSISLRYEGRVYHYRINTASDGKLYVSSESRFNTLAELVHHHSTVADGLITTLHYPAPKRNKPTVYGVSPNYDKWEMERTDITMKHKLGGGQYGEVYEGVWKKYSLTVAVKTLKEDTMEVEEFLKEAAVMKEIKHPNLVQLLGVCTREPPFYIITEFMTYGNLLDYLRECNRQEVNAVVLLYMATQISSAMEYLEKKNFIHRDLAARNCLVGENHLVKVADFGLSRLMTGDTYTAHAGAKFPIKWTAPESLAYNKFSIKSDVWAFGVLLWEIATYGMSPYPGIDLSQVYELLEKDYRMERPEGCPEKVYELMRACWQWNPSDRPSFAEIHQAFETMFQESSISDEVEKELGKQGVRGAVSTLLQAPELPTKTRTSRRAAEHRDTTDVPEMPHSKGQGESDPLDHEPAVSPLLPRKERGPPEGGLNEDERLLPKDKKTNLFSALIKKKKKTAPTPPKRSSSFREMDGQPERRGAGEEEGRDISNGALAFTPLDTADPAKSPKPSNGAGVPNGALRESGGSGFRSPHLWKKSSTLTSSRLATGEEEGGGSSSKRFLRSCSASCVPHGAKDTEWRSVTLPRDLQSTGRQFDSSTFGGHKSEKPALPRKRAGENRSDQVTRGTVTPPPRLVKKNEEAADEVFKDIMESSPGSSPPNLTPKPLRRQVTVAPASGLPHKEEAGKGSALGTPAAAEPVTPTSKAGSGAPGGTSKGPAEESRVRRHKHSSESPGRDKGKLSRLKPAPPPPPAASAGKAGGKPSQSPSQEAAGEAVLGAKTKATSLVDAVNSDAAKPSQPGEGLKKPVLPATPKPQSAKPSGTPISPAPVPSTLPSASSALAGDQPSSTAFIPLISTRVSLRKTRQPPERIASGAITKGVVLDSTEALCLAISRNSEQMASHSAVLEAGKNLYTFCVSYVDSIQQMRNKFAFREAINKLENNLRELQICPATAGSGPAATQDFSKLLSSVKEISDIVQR
Chain of PARP2 (Q9UGN5 whole entry, species assumed): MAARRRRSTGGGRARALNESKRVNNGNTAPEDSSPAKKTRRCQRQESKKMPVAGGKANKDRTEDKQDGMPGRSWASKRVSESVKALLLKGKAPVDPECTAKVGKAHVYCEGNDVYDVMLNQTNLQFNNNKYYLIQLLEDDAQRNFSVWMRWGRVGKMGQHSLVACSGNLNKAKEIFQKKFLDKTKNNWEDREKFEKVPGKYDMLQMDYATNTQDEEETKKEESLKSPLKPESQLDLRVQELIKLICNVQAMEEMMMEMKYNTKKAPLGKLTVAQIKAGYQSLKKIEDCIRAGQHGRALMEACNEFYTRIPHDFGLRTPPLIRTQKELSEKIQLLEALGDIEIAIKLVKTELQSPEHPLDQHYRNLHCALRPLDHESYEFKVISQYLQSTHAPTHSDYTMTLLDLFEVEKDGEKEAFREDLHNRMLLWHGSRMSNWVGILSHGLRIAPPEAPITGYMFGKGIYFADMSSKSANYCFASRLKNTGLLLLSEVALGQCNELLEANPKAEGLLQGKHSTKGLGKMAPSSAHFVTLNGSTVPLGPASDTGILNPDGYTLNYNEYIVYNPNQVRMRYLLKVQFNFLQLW

Row | SMILES | IC50 (A549) | IC50 (ABL1) | IC50 (OVCAR8) | IC50 (PARP1) | Tubulin Polymerization Inhibition (bovine brain tubulin) | IC50 (PARP2)
1 | CCOC(=O)Nc1nc2cc(-c3n[nH]c(=O)c4ccccc34)cc(C)c2[nH]1 [Compound No. 145, Ethyl (7-methyl-5-(4-oxo-3,4-dihydrophthalazin-1-yl)-1H-benzimidazol-2-yl)carbamate] | < 500 nM | 5000 to 10000 nM | < 500 nM | > 10000 nM |  | 
2 | CCOC(=O)Nc1nc2cc(-c3n[nH]c(=O)c4ccccc34)cc(Br)c2[nH]1 [Compound No. 140, Ethyl (7-bromo-5-(4-oxo-3,4-dihydrophthalazin-1-yl)-1H-benzimidazol-2-yl)carbamate] | < 500 nM | < 500 nM | < 500 nM | 5000 to 10000 nM |  | 
3 | CCOC(=O)Nc1nc2cc(-c3n[nH]c(=O)c4cc(F)c(F)cc34)ccc2[nH]1 [Compound No. 11, Ethyl (5-(6,7-difluoro-4-oxo-3,4-dihydrophthalazin-1-yl)-1H-benzimidazol-2-yl)carbamate] | < 500 nM | < 500 nM | < 500 nM | > 10000 nM |  | 
4 | CCNC(=O)Nc1nc2cc(-c3n[nH]c(=O)c4ccccc34)ccc2[nH]1 [Compound No. 80, 1-Ethyl-3-(5-(4-oxo-3,4-dihydrophthalazin-1-yl)-1H-benzimidazol-2-yl)urea] | 1000 to 5000 nM | < 500 nM | 1000 to 5000 nM | > 10000 nM |  | 
5 | COCCOC(=O)Nc1nc2cc(-c3n[nH]c(=O)c4ccccc34)ccc2[nH]1 [Compound No. 3, 2-Methoxyethyl (5-(4-oxo-3,4-dihydrophthalazin-1-yl)-1H-benzimidazol-2-yl)carbamate] | 1000 to 5000 nM | 500 to 1000 nM | 1000 to 5000 nM | 5000 to 10000 nM | Y (Y = (% Inhibition versus control) ≤20%. Results with a compound concentration of 4 μM) | 
6 | CCCC(=O)Nc1nc2cc(-c3n[nH]c(=O)c4ccccc34)ccc2[nH]1 [Compound No. 86, N-(5-(4-oxo-3,4-dihydrophthalazin-1-yl)-1H-benzimidazol-2-yl)butyramide] | < 500 nM | < 500 nM | < 500 nM | 5000 to 10000 nM |  | 
7 | CCOC(=O)Nc1nc2cc(-c3n[nH]c(=O)c4ccc(F)cc34)ccc2[nH]1 [Compound No. 9, Ethyl (5-(7-fluoro-4-oxo-3,4-dihydrophthalazin-1-yl)-1H-benzimidazol-2-yl)carbamate] | < 500 nM | < 500 nM | < 500 nM | > 10000 nM |  | 
8 | CCCC(=O)Nc1nc2cc(-c3n[nH]c(=O)c4ccccc34)cc(Cl)c2[nH]1 [Compound No. 139, N-(7-chloro-5-(4-oxo-3,4-dihydrophthalazin-1-yl)-1H-benzimidazol-2-yl)butyramide] | < 500 nM | < 500 nM | < 500 nM |  |  | 
9 | CCOC(=O)Nc1nc2cc(-c3n[nH]c(=O)c4cccc(Cl)c34)ccc2[nH]1 [Compound No. 20, Ethyl (5-(8-chloro-4-oxo-3,4-dihydrophthalazin-1-yl)-1H-benzimidazol-2-yl)carbamate] | 1000 to 5000 nM | 500 to 1000 nM | 500 to 1000 nM | > 10000 nM |  | 
10 | CCOC(=O)Nc1nc2cc(-c3n[nH]c(=O)c4cc(Cl)c(Cl)cc34)ccc2[nH]1 [Compound No. 23, Ethyl (5-(6,7-dichloro-4-oxo-3,4-dihydrophthalazin-1-yl)-1H-benzimidazol-2-yl)carbamate] | 500 to 1000 nM | < 500 nM | < 500 nM | 1000 to 5000 nM |  | 
11 | CCOC(=O)Nc1nc2cc(-c3n[nH]c(=O)c4ccccc34)cc(Cl)c2[nH]1 [Compound No. 135, Ethyl (7-chloro-5-(4-oxo-3,4-dihydrophthalazin-1-yl)-1H-benzimidazol-2-yl)carbamate] | < 500 nM | < 500 nM | < 500 nM | 1000 to 5000 nM |  | 
12 | CCOC(=O)Nc1nc2cc(-c3n[nH]c(=O)c4ccccc34)ccc2[nH]1 [Compound No. 1, Ethyl (5-(4-oxo-3,4-dihydrophthalazin-1-yl)-1H-benzimidazol-2-yl)carbamate] | < 500 nM | < 500 nM | < 500 nM | 5000 to 10000 nM | Y (Y = (% Inhibition versus control) ≤20%. Results with a compound concentration of 4 μM) | < 500 nM
13 | CCOC(=O)Nc1nc2cc(-c3n[nH]c(=O)c4ccc(Cl)cc34)ccc2[nH]1 [Compound No. 21, Ethyl (5-(7-chloro-4-oxo-3,4-dihydrophthalazin-1-yl)-1H-benzimidazol-2-yl)carbamate] | 500 to 1000 nM | < 500 nM | 500 to 1000 nM | > 10000 nM |  | 
14 | COC(=O)Nc1nc2cc(-c3n[nH]c(=O)c4ccccc34)ccc2[nH]1 [Compound No. 2, Methyl (5-(4-oxo-3,4-dihydrophthalazin-1-yl)-1H-benzimidazol-2-yl)carbamate] | 1000 to 5000 nM | 500 to 1000 nM | 1000 to 5000 nM | > 10000 nM | X (X = (% Inhibition versus control) <20%. Results with a compound concentration of 4 μM) | 
